{"source": "patent US12428370B2", "about": "“Haloallylamine dual amine oxidase inhibitors” (Syntara Limited, priority 2020, dated 2025)", "key": {"[1]": {"molecular_target": "T1, Muscle and Heart Tissue MAO-B (Mus musculus, UniProt Q8BW75)", "T1 construct": "Skeletal muscle was pulverized in liquid nitrogen and then suspended in ice-cold HEPES buffered media; from tissue; host or cells: skeletal muscle and heart of C57BL/6J and mdx mice (mitochondrial extract)", "T1 sequence (Q8BW75 1-520)": "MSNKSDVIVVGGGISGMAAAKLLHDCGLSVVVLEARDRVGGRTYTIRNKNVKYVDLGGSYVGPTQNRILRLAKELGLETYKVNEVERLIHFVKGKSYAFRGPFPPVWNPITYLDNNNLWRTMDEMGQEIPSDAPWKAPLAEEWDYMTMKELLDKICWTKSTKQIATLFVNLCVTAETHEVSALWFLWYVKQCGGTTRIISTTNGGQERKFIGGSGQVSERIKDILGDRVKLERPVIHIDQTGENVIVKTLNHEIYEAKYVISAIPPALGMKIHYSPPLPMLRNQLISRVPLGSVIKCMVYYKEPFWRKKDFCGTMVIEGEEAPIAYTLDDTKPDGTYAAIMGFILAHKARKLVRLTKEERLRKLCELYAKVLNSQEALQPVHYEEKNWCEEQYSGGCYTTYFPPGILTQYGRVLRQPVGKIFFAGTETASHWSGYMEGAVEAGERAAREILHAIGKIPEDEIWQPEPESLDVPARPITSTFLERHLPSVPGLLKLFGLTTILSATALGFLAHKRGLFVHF", "assay": "Mouse muscle and heart tissue MAO-B activity after oral administration", "type": "in vivo", "conditions": "for MAO-B activity in heart and muscle tissue: C57BL/6J mice, single oral dose, FIG. 8", "method": "Mice were orally administered the compound under study and sacrificed at various time points and abdominal fat, muscle and heart tissue collected.\nSkeletal muscle was pulverized in liquid nitrogen and then suspended in ice-cold HEPES buffered media (20 mM HEPES, 0.8% w/v free-fatty acid bovine serum albumin (BSA), 75 mM sucrose, 10 mM EDTA, 215 mM D-mannitol, pH 7.4). Homogenized and then centrifuged at 2,500 rpm for 10 minutes at 4° C. Supernatant transferred and centrifuged at 10,000 rpm for 8 minutes. Supernatant discarded and the resultant pellet containing the mitochondrial extract re-suspended in 0.1 M sodium phosphate buffer solution (1:3 ratio).\nHeart muscle was washed with PBS solution three times over ice. Homogenate and extract was then prepared as described for the skeletal muscle.\nMAO-B activity was determined by using a specific MAO-A inhibitor (e.g. clorgyline) and an SSAO/VAP-1 inhibitor (e.g. semicarbazide) to establish the high signal. Low signal was established as for the adipose tissue assay (EXAMPLE 13).\nActivity of the treated samples was analyzed using the fluorometric method described in EXAMPLE 9 for SSAO/VAP-1 activity, EXAMPLE 10 for MAO-B and EXAMPLE 11 for MAO-A activity (FIG. 8 and FIG. 9)."}, "Recombinant human MAO-B": {"molecular_target": "T2, Recombinant human MAO-B (Homo sapiens, UniProt P27338)", "T2 construct": "purchased Sigma Aldrich", "T2 sequence (P27338 1-520)": "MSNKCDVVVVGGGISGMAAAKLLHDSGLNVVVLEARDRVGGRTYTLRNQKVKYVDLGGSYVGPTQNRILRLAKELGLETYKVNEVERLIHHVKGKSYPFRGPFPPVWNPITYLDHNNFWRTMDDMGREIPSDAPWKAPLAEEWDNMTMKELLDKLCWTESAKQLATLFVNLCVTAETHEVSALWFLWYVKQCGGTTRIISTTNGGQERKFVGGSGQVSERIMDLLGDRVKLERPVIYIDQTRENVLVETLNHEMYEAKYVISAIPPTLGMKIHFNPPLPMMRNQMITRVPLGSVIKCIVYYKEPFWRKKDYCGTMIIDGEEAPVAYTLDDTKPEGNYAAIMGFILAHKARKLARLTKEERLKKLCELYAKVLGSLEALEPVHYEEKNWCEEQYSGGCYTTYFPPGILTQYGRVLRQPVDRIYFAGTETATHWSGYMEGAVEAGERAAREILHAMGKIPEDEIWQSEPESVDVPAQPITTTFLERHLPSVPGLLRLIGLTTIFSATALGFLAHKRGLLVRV", "assay": "Inhibition of human recombinant MAO-B", "type": "biochemical", "conditions": "incubation time of 2 hours, benzylamine 100 μM", "method": "Method to Determine the Ability of Compounds of Formula I to Inhibit Human Recombinant MAO-B\nThe ability of the compounds of this invention to inhibit MAO-B activities in vitro was tested. Recombinant human MAO-B (0.06 mg/mL; Sigma Aldrich) was used as source of MAO-B enzyme activities."}}, "data": [{"smiles": "N#Cc1ccc(OC/C(=C/F)CN)cc1", "note": "[Compound 1, (E)-4-((2-(aminomethyl)-3-fluoroallyl)oxy) benzonitrile]", "values": [{"measurement": "MAO-B activity in heart and muscle tissue", "setting": "[1]; 24-hour time point", "result": "inhibition of the enzyme activity is still evident"}, {"measurement": "MAO-B activity in heart and muscle tissue", "setting": "[1]; various doses, 4 hours after administration", "result": "dose-related reduction"}, {"measurement": "muscle MAO-B activity", "setting": "[1]; mdx mice (C57BL/10ScSn-Dmdmdx/J), oral, FIG. 10", "result": "completely inhibits"}, {"measurement": "IC50", "setting": "Recombinant human MAO-B", "result": "< 50", "unit": "nM"}]}]}
